Measurements: ChEMBL document CHEMBL2412969, “Antihyperglycemic and antihyperlipidemic activities of 2-(4-[(2-hydroxybenzyl) amino]-phenyl amino-methyl)-phenol in STZ induced diabetic rats” (Eur J Med Chem, 2013)
Calls of active or inactive are those of the source. The rule behind the calls is not given here.

Columns and labels:
Rattus norvegicus [1] = assay: Hypoglycemic activity in Wistar albino rat assessed as reduction of blood glucose level at 60 mg/kg, po after 6 hrs (reference value: 73.3 +/- 4.4 mg/dl); type: ADME, organism-based; set-up: dose 60 mg/kg, route oral; conditions: in vivo
Rattus norvegicus [2] = assay: Hypoglycemic activity in Wistar albino rat assessed as reduction of blood glucose level at 60 mg/kg, po after 4 hrs (reference value: 75.8 +/- 4.7 mg/dl); type: ADME, organism-based; set-up: dose 60 mg/kg, route oral; conditions: in vivo
Rattus norvegicus [3] = assay: Hypoglycemic activity in Wistar albino rat assessed as reduction of blood glucose level at 30 mg/kg, po after 5 hrs (reference value: 73.8 +/- 4.5 mg/dl); type: ADME, organism-based; set-up: dose 30 mg/kg, route oral; conditions: in vivo
Rattus norvegicus [4] = assay: Antihyperglycemic activity in Wistar albino rat streptozotocin-induced diabetic model assessed as reduction of blood glucose level at 60 mg/kg, po after 4 hrs (reference value: 373.5 +/- 15.6 mg/dl); type: functional
Rattus norvegicus [5] = assay: Antihyperglycemic activity in Wistar albino rat streptozotocin-induced diabetic model assessed as reduction of blood glucose level at 60 mg/kg, po after 6 hrs (reference value: 372.5 +/- 15.6 mg/dl); type: functional
Rattus norvegicus [6] = assay: Antihyperlipidemic activity in Wistar albino rat streptozotocin-induced diabetic model assessed as increase of serum HDL-cholesterol level at 30 mg/kg, po qd for 30 days; type: functional, organism-based; set-up: dose 30 mg/kg
Rattus norvegicus [7] = assay: Antihyperglycemic activity in glucose loaded Wistar albino rat streptozotocin-induced diabetic model assessed as reduction of blood glucose level at 30 mg/kg, po after 1 hr by oral glucose tolerance test; type: functional, organism-based; set-up: dose 30 mg/kg
Rattus norvegicus [8] = assay: Hypoglycemic activity in Wistar albino rat assessed as reduction of blood glucose level at 20 mg/kg, po after 5 hrs (reference value: 73.8 +/- 4.5 mg/dl); type: ADME, organism-based; set-up: dose 20 mg/kg, route oral; conditions: in vivo
Rattus norvegicus [9] = assay: Antihyperlipidemic activity in Wistar albino rat streptozotocin-induced diabetic model assessed as reduction of serum total cholesterol level at 30 mg/kg, po qd for 30 days; type: functional, organism-based; set-up: dose 30 mg/kg
Rattus norvegicus [10] = assay: Hypoglycemic activity in Wistar albino rat assessed as reduction of blood glucose level at 30 mg/kg, po after 4 hrs (reference value: 75.8 +/- 4.7 mg/dl); type: ADME, organism-based; set-up: dose 30 mg/kg, route oral; conditions: in vivo
Rattus norvegicus [11] = assay: Renaltoxicity in Wistar albino rat assessed as urea level in blood at 30 mg/kg, po qd for 30 days; type: organism-based; set-up: dose 30 mg/kg, route oral; conditions: in vivo, 720 h
Rattus norvegicus [12] = assay: Antihyperglycemic activity in Wistar albino rat streptozotocin-induced diabetic model assessed as reduction of blood glucose level at 30 mg/kg, po after 3 hrs (reference value: 384.33 +/- 17.33 mg/dl); type: functional
Rattus norvegicus [13] = assay: Antihyperglycemic activity in Wistar albino rat streptozotocin-induced diabetic model assessed as reduction of blood glucose level at 60 mg/kg, po after 5 hrs (reference value: 372.2 +/- 16.6 mg/dl); type: functional
Rattus norvegicus [14] = assay: Renalprotective activity in Wistar albino rat assessed as protection against streptozotocin-induced increase in urea level in blood at 30 mg/kg, po qd for 30 days; type: functional
Rattus norvegicus [15] = assay: Hypoglycemic activity in Wistar albino rat assessed as reduction of blood glucose level at 30 mg/kg, po after 1 hr (reference value: 71.26 +/- 4.3 mg/dl); type: ADME, organism-based; set-up: dose 30 mg/kg, route oral; conditions: in vivo
Rattus norvegicus [16] = assay: Renalprotective activity in Wistar albino rat assessed as protection against streptozotocin-induced increase in creatinine level in blood at 30 mg/kg, po qd for 30 days; type: functional
Rattus norvegicus [17] = assay: Hepatotoxicity in Wistar albino rat assessed as AST, ALT and ALP level in serum at 30 mg/kg, po qd for 30 days; type: toxicity, organism-based; set-up: dose 30 mg/kg, route oral; conditions: in vivo, 720 h
Rattus norvegicus [18] = assay: Antihyperlipidemic activity in Wistar albino rat streptozotocin-induced diabetic model assessed as reduction of serum LDL level at 30 mg/kg, po qd for 30 days; type: functional, organism-based; set-up: dose 30 mg/kg
Rattus norvegicus [19] = assay: Hypoglycemic activity in Wistar albino rat assessed as reduction of blood glucose level at 30 mg/kg, po after 6 hrs (reference value: 73.3 +/- 4.4 mg/dl); type: ADME, organism-based; set-up: dose 30 mg/kg, route oral; conditions: in vivo
Rattus norvegicus [20] = assay: Hypoglycemic activity in Wistar albino rat assessed as reduction of blood glucose level at 20 mg/kg, po after 6 hrs (reference value: 73.3 +/- 4.4 mg/dl); type: ADME, organism-based; set-up: dose 20 mg/kg, route oral; conditions: in vivo
Rattus norvegicus [21] = assay: Hypoglycemic activity in Wistar albino rat assessed as reduction of blood glucose level at 20 mg/kg, po after 4 hrs (reference value: 75.8 +/- 4.7 mg/dl); type: ADME, organism-based; set-up: dose 20 mg/kg, route oral; conditions: in vivo
Rattus norvegicus [22] = assay: Antihyperglycemic activity in Wistar albino rat streptozotocin-induced diabetic model assessed as reduction of blood glucose level at 30 mg/kg, po after 1 hr (reference value: 389.16 +/- 19 mg/dl); type: functional
Rattus norvegicus [23] = assay: Hypoglycemic activity in Wistar albino rat assessed as reduction of blood glucose level at 60 mg/kg, po after 3 hrs (reference value: 76.3 +/- 5.4 mg/dl); type: ADME, organism-based; set-up: dose 60 mg/kg, route oral; conditions: in vivo
Rattus norvegicus [24] = assay: Antihyperglycemic activity in Wistar albino rat streptozotocin-induced diabetic model assessed as reduction of fasting blood glucose level at 30 mg/kg, po qd measured on day 15 (reference value: 404.2 +/- 29.15 mg/dl); type: functional
Rattus norvegicus [25] = assay: Hypoglycemic activity in Wistar albino rat assessed as reduction of blood glucose level at 20 mg/kg, po after 3 hrs (reference value: 76.3 +/- 5.4 mg/dl); type: ADME, organism-based; set-up: dose 20 mg/kg, route oral; conditions: in vivo

Activity (Rattus norvegicus [1]): 75 mg/dL | Activity (Rattus norvegicus [2]): 79.3 mg/dL | Activity (Rattus norvegicus [3]): 72.8 mg/dL | Activity (Rattus norvegicus [8]): 70.1 mg/dL | Activity (Rattus norvegicus [10]): 73.16 mg/dL | Activity (Rattus norvegicus [15]): 74.16 mg/dL | Activity (Rattus norvegicus [19]): 72.5 mg/dL | Activity (Rattus norvegicus [20]): 70 mg/dL | Activity (Rattus norvegicus [21]): 72 mg/dL | Activity (Rattus norvegicus [23]): 73.6 mg/dL | Activity (Rattus norvegicus [25]): 74.16 mg/dL
Structure (SMILES): Oc1ccccc1CNc1ccc(NCc2ccccc2O)cc1
Activity (Rattus norvegicus [4]): 54.8 mg/dL | Activity (Rattus norvegicus [5]): 36.8 mg/dL | Activity (Rattus norvegicus [6]): Active | Activity (Rattus norvegicus [7]): Active | Activity (Rattus norvegicus [9]): Active | Activity (Rattus norvegicus [11]): 43.25 mg/dL | Activity (Rattus norvegicus [12]): 248.8 mg/dL | Activity (Rattus norvegicus [13]): 49.1 mg/dL | Activity (Rattus norvegicus [14]): 54.02 mg/dL | Activity (Rattus norvegicus [16]): 0.462 mg/dL | Activity (Rattus norvegicus [17]): Non-toxic | Activity (Rattus norvegicus [18]): Active | Activity (Rattus norvegicus [22]): 315.2 mg/dL | Activity (Rattus norvegicus [24]): 247.5 mg/dL
